Measured values taken from patent publication US6534035B1, “Methods of inhibiting clot formation” (President and Fellows of Harvard College, priority 1998, dated 2003).
“Also recorded” adds a separate entry of the source. Peptide text beside a SMILES is read from it. * marks the point of attachment. Biotin = O=C1N[C@H]2[C@H](CS[C@H]2CCCCC(=O)*)N1

How the values were obtained:
[1] = target: T1, guinea pig tissue transglutaminase (Cavia cutleri, UniProt P08587); experiment: Crosslinking of α2AP13-24 into fibrin by tissue transglutaminase; type: biochemical; settings: purified tissue transglutaminase (100 nM) added to FXIIIa-deficient fibrinogen
T1 sequence (P08587 1-690): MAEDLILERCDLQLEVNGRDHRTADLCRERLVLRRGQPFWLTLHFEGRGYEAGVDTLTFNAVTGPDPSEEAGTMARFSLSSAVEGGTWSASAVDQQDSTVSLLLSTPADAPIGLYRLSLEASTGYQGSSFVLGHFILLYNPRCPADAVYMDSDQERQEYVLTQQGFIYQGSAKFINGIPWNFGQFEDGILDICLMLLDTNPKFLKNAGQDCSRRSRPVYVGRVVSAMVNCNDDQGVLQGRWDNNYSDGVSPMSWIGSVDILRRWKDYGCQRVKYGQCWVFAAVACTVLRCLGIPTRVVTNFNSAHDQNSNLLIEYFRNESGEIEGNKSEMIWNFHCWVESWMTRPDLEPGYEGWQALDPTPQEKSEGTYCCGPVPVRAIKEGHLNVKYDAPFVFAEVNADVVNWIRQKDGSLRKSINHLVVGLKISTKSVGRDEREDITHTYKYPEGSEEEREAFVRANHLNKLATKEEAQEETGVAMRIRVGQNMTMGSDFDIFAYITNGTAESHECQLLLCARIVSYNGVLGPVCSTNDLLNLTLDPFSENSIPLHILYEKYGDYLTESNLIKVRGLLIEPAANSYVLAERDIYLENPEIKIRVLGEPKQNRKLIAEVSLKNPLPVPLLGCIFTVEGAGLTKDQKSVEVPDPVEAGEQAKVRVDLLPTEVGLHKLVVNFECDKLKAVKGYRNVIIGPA
Method: Fibrin clots (50 μl) were prepared in duplicate by mixing FXIII-free fibrinogen (2 mg/ml final), α2AP13-24 (SEQ ID NO:2; 0.5 mM final), CaCl2 (2 mM final), human plasma FXIII (100 nM/L final) and guinea pig tissue transglutaminase (100 nM/L final) and thrombin (1 U/ml final) and incubating at 37° C. for 2 hours. The crosslinking of α2AP13-24 was detected as described above.

pulmonary emboli = experiment: Crosslinking of α2AP13-24 into pulmonary emboli in vivo; parameters: species or system ferret; settings: 0.5 mM dose of biotinylated peptide after embolization, 4 hours
Method: To examine whether FXIIIa which formed thrombi in vivo retained the ability to crosslink substrates, the ferret pulmonary embolism model was used. Clots were formed by combining 45 μl of pooled human fresh frozen plasma with ^125I-labeled fibrinogen (˜100,000 cpm/clot), 2.5 μl of 0.4 M CaCl2, and 2.5 μl thrombin (1000 U/ml). The clots were incubated at 37° C. for 20 minutes, washed three times in saline, and 6 were embolized into the lungs of each animal. Three experimental groups were examined with 2 animals in each group. One group received normal clots and a solution of α2AP13-24 (SEQ ID NO:2) calculated to produce a final peptide concentration of 0.5 mM. Another group also received the same peptide concentration; prior to embolization, the clots in this group were washed in iodoacetamide (10 mg/ml) and EDTA (10 mM final) to inhibit clot associated FXIIIa. The third group received the blood clots but no peptide infusion afterward. Four hours after embolization, the ferrets were sacrificed by CO2 inhalation. The heart, lungs, and great vessels were removed and gamma-counted to locate the pulmonary emboli.
Lung tissue containing pulmonary emboli was localized with a Geiger counter, excised and weighed. […]

Compound: CC(C)C[C@H](NC(=O)[C@H](CC(C)C)NC(=O)[C@@H](NC(=O)[C@H](CC(C)C)NC(=O)[C@@H]1CCCN1C(=O)[C@H](CO)NC(=O)[C@@H](NC(=O)[C@H](CCC(N)=O)NC(=O)[C@H](CCC(=O)O)NC(=O)[C@H](CCC(N)=O)NC(=O)[C@@H](N)CC(N)=O)C(C)C)[C@@H](C)O)C(=O)N[C@@H](CCCCNC(=O)CCCC[C@@H]1SC[C@@H]2NC(=O)N[C@@H]21)C(=O)O [α2AP13-24, NQEQVSPLTLLK] (H-NQEQVSPLTLLK(Biotin)-OH)
- crosslinking of peptide to fibrin [1]: slight increase in crosslinking
- incorporation of peptide into existing pulmonary emboli (pulmonary emboli): specific staining was detected in the thrombus; also recorded: covalently incorporated
